Values of other authors, collected in US20070123548A1, “Pth agonists” (priority 2004, published 2007).

Conditions: daily subcutaneous injection for up to 2 years

**Q.** Which results are given for `CC[C@H](C)[C@H](NC(=O)[C@H](CCC(=O)O)NC(=O)[C@H](CO)NC(=O)[C@@H](NC(=O)[C@@H](N)CO)C(C)C)C(=O)N[C@@H](CCC(N)=O)C(=O)N[C@@H](CC(C)C)C(=O)N[C@@H](CCSC)C(=O)N[C@@H](Cc1cnc[nH]1)C(=O)N[C@@H](CC(N)=O)C(=O)N[C@@H](CC(C)C)C(=O)NCC(=O)N[C@@H](CCCCN)C(=O)N[C@@H](Cc1cnc[nH]1)C(=O)N[C@@H](CC(C)C)C(=O)N[C@@H](CC(N)=O)C(=O)N[C@@H](CO)C(=O)N[C@@H](CCSC)C(=O)N[C@@H](CCC(=O)O)C(=O)N[C@@H](CCCN=C(N)N)C(=O)N[C@H](C(=O)N[C@@H](CCC(=O)O)C(=O)N[C@@H](Cc1c[nH]c2ccccc12)C(=O)N[C@@H](CC(C)C)C(=O)N[C@@H](CCCN=C(N)N)C(=O)N[C@@H](CCCCN)C(=O)N[C@@H](CCCCN)C(=O)N[C@@H](CC(C)C)C(=O)N[C@@H](CCC(N)=O)C(=O)N[C@@H](CC(=O)O)C(=O)N[C@H](C(=O)N[C@@H](Cc1cnc[nH]1)C(=O)N[C@@H](CC(N)=O)C(=O)N[C@@H](Cc1ccccc1)C(=O)O)C(C)C)C(C)C` [PTH(1-34)]?
**A.** Reduction of fracture incidence at non-vertebral sites: 40%; Reduction of fracture incidence at the spine: 65%
